Measured values: paper PMC6930223 (Scientific Reports, 2019)

Assays:
[1] = tested on: hERG1a protein (fg 155 kDa, cg 135 kDa); assay: Western blot protein expression in HEK293-hERG1a/1b cells; assay type: cell-based, human; details: 24 h
Description: (§1) Total protein was isolated using RIPA lysis buffer system (Santa Cruz Biotechnology, Inc., USA). Equal amounts of protein samples were loaded onto 7.5% (v/v) polyacrylamide gels and were subsequently transferred to Immobilon®-P PVDF membrane (Millipore, USA) using Trans-Blot® Turbo™ Blotting System (Bio-Rad Laboratories, USA). Blots were blocked with 3% (w/v) skim milk for 1 h and probed with optimized primary antibodies against hERG1a (1:5000), hERG1b (1:1250), Hsp70 (1:10, 000), Hsp90 (1:5000) and β-actin (1:5000) overnight at 4 °C. Finally, the blots were then incubated in horseradish peroxidase (HRP) conjugated secondary antibody (1:1000) for 2.5 h followed by Clarity™ Western ECL substrate (Bio-Rad Laboratories, USA). The antibodies used for Western blotting were rabbit hERG1a polyclonal antibody (Enzo Life Sciences, USA), rabbit hERG1b polyclonal antibody (Enzo Life Sciences, USA), rabbit Hsc70/Hsp70 polyclonal antibody (Enzo Life Sciences, USA), rabbit Hsp90 polyclonal antibody (Enzo Life Sciences, USA), rabbit β-actin antibody (Cell Signaling, USA) and anti-rabbit IgG HRP-linked antibody (Cell Signaling, USA). Chemiluminescence signal was detected using ChemiDoc™ XRS Imaging System (Bio-Rad Laboratories, USA). Band densities were scanned and quantified using Image Lab Software (Bio-Rad Laboratories, USA). The signal for each protein band was normalized to the reference protein, β-actin. Experiments were conducted in duplicate and represented as mean fold changes of three independent experiments.

[2] = tested on: hERG1b protein (fg 95 kDa, cg 80 kDa); assay: as above; assay type: cell-based, human; details: all concentrations, 24 h
Description: as §1

Hsp70 = assay: Western blot of endogenous chaperone expression in HEK-hERG1a/1b cells; assay type: cell-based, human; details: exposure for 24 h
Description: as §1, with “The signal for each protein band was normalized to the reference protein, β-actin. Experiments were conducted in duplicate and represented as mean fold changes of three independent experiments.” left out

Hsp90 = assay: as above; assay type: cell-based, human; details: exposure for 24 h
Description: as §1, with “The signal for each protein band was normalized to the reference protein, β-actin. Experiments were conducted in duplicate and represented as mean fold changes of three independent experiments.” left out

hERG1a mRNA = assay: RT-qPCR mRNA expression in HEK293-hERG1a/1b cells; assay type: cell-based, human; details: all concentrations, 24 h at 37 °C
Description: (§2) Briefly, total cellular RNA was isolated from treated cells using RNeasy® Plus Mini kit (Qiagen, Germany) following manufacturer’s instruction. The optimized RT-qPCR assay was performed using CFX96™ real-time PCR system (Bio-Rad Laboratories Inc., USA) with the following cycle parameters: 10 min at 50 °C for reverse transcription, 1 min at 95 °C for activation of Taq polymerase, followed by 40 cycles of 10 s at 95 °C for denaturation and 30 s at 53.9 °C for annealing and data acquisition. Specifically, the assay was performed using 100 ng of total RNA and iTaq™ Universal SYBR® Green One-Step Kit (Bio-Rad Laboratories Inc., USA) in 10 µl of reaction volume. A melt curve analysis was computed at the end of the qPCR cycles to determine the specificity of the primers. The results were analyzed using CFX Manager software version 3.1 (Bio-Rad Laboratories Inc., USA). The mRNA expressions of hERG1a/1b were presented as fold changes normalized to endogenous reference genes, ACTB and GAPDH, and relative to the control gene[69]–[71]. Each experiment was conducted in triplicate and data are presented as mean fold changes of three independent experiments.

hERG1b mRNA = assay: RT-qPCR mRNA expression in HEK293-hERG1a/1b cells; assay type: cell-based, human; details: all concentrations, 24 h at 37 °C
Description: as §2

HEK293-hERG1a/1b cells = assay: Cell proliferation assay (CellTiter 96 AQueous One), 72 h; assay type: cell-based, human
Description: Trypan blue exclusion test was carried out to determine the effect of transfection on HEK293-hERG1a/1b cell viability. Briefly, cell suspension was mixed with 0.4% (v/v) trypan blue solution in a ratio of 1:1 and the viability of the cells were analyzed using Countess® II FL automated cell counter (Invitrogen, USA). For cell proliferation assay, cells were first seeded at a density of 5000 cells/well onto two 96-well plates (T0 and T1) and were incubated at 37 °C for 24 h in a humidified incubator supplemented with 5% (v/v) CO2. Subsequently, cells in T0 plate were subjected to cell proliferation assay as described previously. Meanwhile, cells in T1 plate were cultured in reduced serum medium (0.5% v/v FBS) for 4 h and treated with various concentrations of mitragynine. After 72 h, cell proliferation was determined using CellTiter 96® AQueous One Solution Cell Proliferation Assay (Promega, USA) following manufacturer’s protocol. Cell proliferation results were expressed as percentage growth (PG)[65]. The response parameters GI50 (half maximal growth inhibitory concentration), TGI (total growth inhibition) and LC50 (half maximal lethal concentration) values were derived from a non-linear regression model (curvefit) based on dose response-inhibition curve and computed using GraphPad Prism® 5.01 (GraphPad Software, USA). The GI50, TGI and LC50 are interpolated values representing the concentrations at which the PG is +50, 0 and −50 respectively. Data are presented as mean PG for three independent experiments.

CYP1A2 = tested on: CYP1A2; set-up: method as in PMID 24174816, PMID 23274770; details: cited from earlier work

For mitragynine, the “increase of cg-hERG1a expression” value ([1]; 10 µM, vs untreated control) was ~50%, the “reduction of fg-hERG1a expression” value ([1]; 10 µM, vs untreated control) was “approximately 22.3%” and the “expression of cg-hERG1a” value ([1]; 0.001–1 µM) was “unaffected”. The “protein expression of fg-hERG1a” value ([1]; 0.001–1 µM) was “no clear pattern”, the cg-hERG1b protein expression [2] was “no significant changes” and the fg-hERG1b protein expression [2] was “no significant changes”. For the same substance, the Hsp70 levels (Hsp70) was “neither Hsp70 nor Hsp90 levels were significantly altered”, the Hsp90 levels (Hsp90) was “neither Hsp70 nor Hsp90 levels were significantly altered” and the “effect on mRNA expression of hERG1a” value (hERG1a mRNA) was “did not affect”. For the same substance, the “effect on mRNA expression of hERG1b” value (hERG1b mRNA) was “did not affect”, the GI50 (HEK293-hERG1a/1b cells) was 30.2 µM and the LC50 (HEK293-hERG1a/1b cells) was 85.1 µM. For the same substance, the TGI (HEK293-hERG1a/1b cells) was 57.68 µM and the “effect on CYP1A2 (induction)” value (CYP1A2) was “inductive effect”.
